Results from ChEMBL document CHEMBL4602694, “Suppression of Drug-Resistant Non-Small-Cell Lung Cancer with Inhibitors Targeting Minichromosomal Maintenance Protein” (J Med Chem, 2020).
Calls of active or inactive are those of the source. No cut-off for these calls is given here.

How the values were obtained:
[1] = target: T1, DNA replication licensing factor MCM6 (Homo sapiens) (UniProt Q14566); assay: Induction of ubiquitination of MCM6 in human NCI-H1975 cells in presence of MG132 incubated for 48 hrs followed by MG132 addition and measured after 12 hrs by immunoblot analysis (reference value: 1.8); assay type: cell-based
T1 sequence (whole entry): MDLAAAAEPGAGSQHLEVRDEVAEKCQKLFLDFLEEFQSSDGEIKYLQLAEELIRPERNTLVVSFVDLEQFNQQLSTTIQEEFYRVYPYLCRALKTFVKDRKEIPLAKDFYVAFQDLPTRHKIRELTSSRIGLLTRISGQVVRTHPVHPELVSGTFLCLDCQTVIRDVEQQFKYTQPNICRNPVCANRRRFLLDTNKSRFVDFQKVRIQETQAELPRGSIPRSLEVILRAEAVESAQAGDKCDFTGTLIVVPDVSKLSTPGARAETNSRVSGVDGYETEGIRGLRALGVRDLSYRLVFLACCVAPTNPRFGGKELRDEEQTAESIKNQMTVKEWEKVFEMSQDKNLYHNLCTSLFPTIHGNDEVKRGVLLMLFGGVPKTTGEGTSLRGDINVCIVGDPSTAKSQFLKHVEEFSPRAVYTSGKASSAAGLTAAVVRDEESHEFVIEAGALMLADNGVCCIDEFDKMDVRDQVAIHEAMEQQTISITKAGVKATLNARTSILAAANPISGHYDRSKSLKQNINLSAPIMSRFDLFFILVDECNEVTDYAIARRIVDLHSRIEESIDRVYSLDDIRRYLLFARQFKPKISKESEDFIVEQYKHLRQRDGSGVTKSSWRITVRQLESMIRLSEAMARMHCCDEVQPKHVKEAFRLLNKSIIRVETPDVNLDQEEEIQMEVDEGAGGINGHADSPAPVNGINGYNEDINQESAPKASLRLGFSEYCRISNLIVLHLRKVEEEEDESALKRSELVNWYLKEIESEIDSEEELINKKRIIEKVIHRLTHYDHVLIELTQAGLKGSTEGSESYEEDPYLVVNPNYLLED

[2] = target: DNA replication licensing factor MCM7 (Homo sapiens) (UniProt P33993); assay: Induction of ubiquitination of MCM7 in human H3255 cells incubated for 24 hrs by immunoblot analysis; assay type: cell-based; settings: NCI-H3255
[3] = target: DNA replication licensing factor MCM2 (Homo sapiens) (UniProt P49736); assay: Induction of ubiquitination of MCM2 in human NCI-H1975 cells incubated for 24 hrs by immunoblot analysis; assay type: cell-based
NCI-H1975 [4] = assay: Antitumor activity against human NCI-H1975 cells xenografted in athymic nude BALB/c mouse assessed as tumor growth inhibition at 4 mg/kg, ip administered for 4 weeks relative to control; assay type: functional; settings: 672 h, read-out: TGI
CL1-0 = assay: Antiproliferative activity against human CL1-0 cells assessed as reduction in cell viability incubated for 72 hrs by SRB assay; assay type: functional, cell-based; settings: CL1-0, 72 h
[5] = target: DNA replication licensing factor MCM2 (Homo sapiens) (UniProt P49736); assay: Induction of ubiquitination of MCM2 in human NCI-H1975 cells incubated for 48 hrs by immunoblot analysis (reference value: 1); assay type: cell-based
[6] = Antiproliferative activity against human CL1-5 cells assessed as reduction in cell viability incubated for 72 hrs by SRB assay; assay type: functional, cell-based; settings: CL1-5, 72 h
[7] = target: DNA replication licensing factor MCM2 (Homo sapiens) (UniProt P49736); assay: Induction of ubiquitination of MCM2 in human H3255 cells incubated for 24 hrs by immunoblot analysis; assay type: cell-based; settings: NCI-H3255
[8] = target: DNA replication licensing factor MCM2 (Homo sapiens) (UniProt P49736); assay: Induction of ubiquitination of MCM2 in human NCI-H1975 cells incubated for 24 hrs by immunoblot analysis (reference value: 1); assay type: cell-based
[9] = target: T2, DNA replication licensing factor MCM3 (Homo sapiens) (UniProt P25205); assay: Induction of ubiquitination of MCM3 in human NCI-H1975 cells incubated for 72 hrs by immunoblot analysis (reference value: 1); assay type: cell-based
T2 sequence (whole entry): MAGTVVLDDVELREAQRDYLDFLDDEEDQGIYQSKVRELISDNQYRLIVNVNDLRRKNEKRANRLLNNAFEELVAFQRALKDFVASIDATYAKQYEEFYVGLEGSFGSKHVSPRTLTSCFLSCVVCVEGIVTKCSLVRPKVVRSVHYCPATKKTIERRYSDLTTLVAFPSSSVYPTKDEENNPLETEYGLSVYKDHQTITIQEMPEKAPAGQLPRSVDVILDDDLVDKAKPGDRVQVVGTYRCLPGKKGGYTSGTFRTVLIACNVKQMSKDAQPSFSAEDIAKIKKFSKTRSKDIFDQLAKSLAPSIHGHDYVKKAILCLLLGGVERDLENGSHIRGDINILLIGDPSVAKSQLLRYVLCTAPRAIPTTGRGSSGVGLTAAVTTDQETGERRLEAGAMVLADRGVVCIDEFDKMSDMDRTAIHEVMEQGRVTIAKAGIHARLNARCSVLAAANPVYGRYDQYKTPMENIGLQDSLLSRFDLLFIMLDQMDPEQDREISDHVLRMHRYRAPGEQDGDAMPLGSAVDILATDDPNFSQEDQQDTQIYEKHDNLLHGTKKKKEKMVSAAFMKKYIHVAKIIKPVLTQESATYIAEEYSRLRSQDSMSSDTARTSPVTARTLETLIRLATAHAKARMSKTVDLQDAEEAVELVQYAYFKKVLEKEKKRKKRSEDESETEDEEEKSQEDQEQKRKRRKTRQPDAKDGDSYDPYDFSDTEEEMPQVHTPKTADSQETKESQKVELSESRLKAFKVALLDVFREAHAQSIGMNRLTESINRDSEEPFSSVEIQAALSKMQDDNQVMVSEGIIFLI

[10] = target: DNA replication licensing factor MCM2 (Homo sapiens) (UniProt P49736); assay: Induction of ubiquitination of MCM2 in human NCI-H1975 cells at 140 nM in presence of MG132 incubated for 48 hrs followed by MG132 addition and measured after 12 hrs by immunoblot analysis; assay type: cell-based
[11] = target: T1, DNA replication licensing factor MCM6 (Homo sapiens); assay: Induction of ubiquitination of MCM6 in human H3255 cells incubated for 24 hrs by immunoblot analysis; assay type: cell-based; settings: NCI-H3255
NCI-H1975 [12] = assay: Cell cycle arrest in human NCI-H1975 cells assessed as accumulation in G1/S phase at 140 nM incubated for 48 hrs by DAPI staining based immunofluorescence microscopy; assay type: functional
[13] = system: DNA replication licensing factor MCM2 (Homo sapiens), P49736 [Q341A]; assay: Induction of ubiquitination of FLAG-tagged MCM2 Q341A mutant (unknown origin) expressed in human NCI-H1975 cells incubated for 24 hrs by magnetic beads technique based immunoblot analysis; assay type: cell-based
NCI-H1975 [14] = assay: Cell cycle arrest in human NCI-H1975 cells assessed as accumulation in S phase at 140 nM incubated for 72 hrs by propidium iodide base flow cytometry analysis (reference value: 2 %); assay type: functional
[15] = Selectivity index, ratio of IC50 for human bronchial epithelial cells to IC50 for human CL1-0 cells; assay type: toxicity; settings: human bronchial epithelial cells versus CL1-0 cells, read-out: Ratio IC50
NCI-H1975 [16] = assay: Antiproliferative activity against human NCI-H1975 cells assessed as reduction in cell viability incubated for 72 hrs by SRB assay; assay type: functional, cell-based; settings: NCI-H1975, 72 h
[17] = target: T1, DNA replication licensing factor MCM6 (Homo sapiens); assay: Induction of ubiquitination of MCM6 in human NCI-H1975 cells at 140 nM in presence of MG132 incubated for 48 hrs followed by MG132 addition and measured after 12 hrs by immunoblot analysis; assay type: cell-based

DNA replication licensing factor MCM2 (Homo sapiens), sequence (P49736 whole entry): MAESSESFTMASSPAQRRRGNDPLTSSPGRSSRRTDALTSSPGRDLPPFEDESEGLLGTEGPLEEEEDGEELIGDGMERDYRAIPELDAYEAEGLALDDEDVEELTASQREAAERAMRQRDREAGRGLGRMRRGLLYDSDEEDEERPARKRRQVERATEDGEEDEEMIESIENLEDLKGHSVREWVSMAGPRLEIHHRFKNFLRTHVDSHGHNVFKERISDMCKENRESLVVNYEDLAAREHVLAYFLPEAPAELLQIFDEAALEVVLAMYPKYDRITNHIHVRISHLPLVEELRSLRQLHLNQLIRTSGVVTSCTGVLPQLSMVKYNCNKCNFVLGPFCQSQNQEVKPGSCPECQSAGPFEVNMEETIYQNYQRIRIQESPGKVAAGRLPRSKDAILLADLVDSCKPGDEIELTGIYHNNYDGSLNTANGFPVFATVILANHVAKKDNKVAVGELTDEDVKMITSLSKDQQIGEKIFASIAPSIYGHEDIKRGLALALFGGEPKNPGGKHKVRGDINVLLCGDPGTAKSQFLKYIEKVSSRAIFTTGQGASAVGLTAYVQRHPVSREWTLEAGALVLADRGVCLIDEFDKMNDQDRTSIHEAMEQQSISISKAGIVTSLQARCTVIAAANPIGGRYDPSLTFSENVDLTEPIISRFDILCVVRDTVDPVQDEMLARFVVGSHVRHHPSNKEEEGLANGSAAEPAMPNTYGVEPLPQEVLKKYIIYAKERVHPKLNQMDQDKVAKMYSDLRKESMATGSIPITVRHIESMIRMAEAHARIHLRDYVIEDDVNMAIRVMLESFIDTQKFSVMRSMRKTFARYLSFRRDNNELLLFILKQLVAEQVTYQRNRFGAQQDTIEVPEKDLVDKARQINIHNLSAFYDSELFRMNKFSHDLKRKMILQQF
DNA replication licensing factor MCM7 (Homo sapiens), sequence (P33993 whole entry): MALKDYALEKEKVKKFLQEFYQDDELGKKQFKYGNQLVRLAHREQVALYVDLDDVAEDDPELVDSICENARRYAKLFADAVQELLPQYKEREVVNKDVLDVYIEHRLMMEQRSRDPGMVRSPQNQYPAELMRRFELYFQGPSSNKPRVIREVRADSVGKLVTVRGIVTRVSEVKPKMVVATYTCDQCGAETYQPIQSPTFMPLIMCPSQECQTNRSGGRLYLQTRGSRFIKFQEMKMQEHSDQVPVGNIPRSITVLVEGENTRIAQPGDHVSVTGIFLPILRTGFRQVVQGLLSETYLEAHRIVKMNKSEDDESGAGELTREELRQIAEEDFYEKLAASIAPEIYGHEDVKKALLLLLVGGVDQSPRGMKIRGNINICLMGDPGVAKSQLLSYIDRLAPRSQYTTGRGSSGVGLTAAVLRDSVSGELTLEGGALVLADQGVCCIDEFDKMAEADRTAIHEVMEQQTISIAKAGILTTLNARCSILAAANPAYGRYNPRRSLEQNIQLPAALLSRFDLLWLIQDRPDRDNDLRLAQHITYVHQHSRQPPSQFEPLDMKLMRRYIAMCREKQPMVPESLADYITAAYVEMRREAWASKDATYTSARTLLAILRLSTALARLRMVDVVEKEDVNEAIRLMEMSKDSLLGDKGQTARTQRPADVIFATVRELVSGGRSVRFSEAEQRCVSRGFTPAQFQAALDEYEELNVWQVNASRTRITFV
DNA replication licensing factor MCM2 (Homo sapiens), P49736 [Q341A], sequence (P49736 whole entry Q341A): as the sequence (P49736 whole entry) above, with Q341A counted along it

Activity [1]: 0.5 | Activity [2]: Active | Activity [3]: Dose-dependent effect | Activity [5]: 0.4 | Activity [7]: Active | Activity [8]: 0.7 | Activity [9]: 0.1 | Activity [10]: Active | Activity [11]: Active | Activity [13]: inactive | IC50 (NCI-H1975 [16]): 0.077 µM | Activity [17]: Active
SMILES: Cc1oc2c(c1C(=O)NCCCn1ccnc1)C(=O)c1ccccc1C2=O
inhibition in vivo at 4 mg/kg (NCI-H1975 [4]): 59% | IC50 (CL1-0): < 0.1 µM | IC50 [6]: < 0.1 µM | Activity (NCI-H1975 [12]): Active | Activity (NCI-H1975 [14]): 18% | selectivity ratio [15]: > 10
